In patent US20260256738A1, “METHODS OF TREATING CANCER WITH A RAS MUTATION” (Immuneering Corporation, priority 2023, published 2026):

How the values were obtained:
CYP450 2B6 = target: T1, CYP450 2B6 (Homo sapiens, UniProt P20813); experiment: CYP450 Panel; format: in vitro ADME; conditions: 10 μM; substrate bupropion
T1 sequence (P20813 1-491): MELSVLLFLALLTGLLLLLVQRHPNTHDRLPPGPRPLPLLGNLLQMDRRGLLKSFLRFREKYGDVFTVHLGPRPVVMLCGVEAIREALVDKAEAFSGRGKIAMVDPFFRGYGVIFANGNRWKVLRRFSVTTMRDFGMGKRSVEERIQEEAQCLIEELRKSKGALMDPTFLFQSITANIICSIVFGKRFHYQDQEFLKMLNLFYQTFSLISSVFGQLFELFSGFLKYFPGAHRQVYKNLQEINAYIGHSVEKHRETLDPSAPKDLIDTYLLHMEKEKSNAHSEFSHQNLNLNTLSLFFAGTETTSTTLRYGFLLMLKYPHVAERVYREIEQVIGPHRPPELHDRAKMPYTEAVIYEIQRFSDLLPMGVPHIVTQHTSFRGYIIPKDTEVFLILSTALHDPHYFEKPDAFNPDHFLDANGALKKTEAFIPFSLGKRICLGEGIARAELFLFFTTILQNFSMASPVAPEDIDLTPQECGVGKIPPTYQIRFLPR

Colon-26 KRAS-G12D tumor = experiment: Colon-26 Model (KRAS G12D CRC): Efficacy & Safety; format: in vivo; conditions: Colon-26 KRAS-G12D in Balb/c
Experimental: Female athymic BALB/c nude or BALB/c mice (Beijing Vital River Laboratory Animal Technology Co., Ltd.), approximately 8-10 weeks old were used in these studies. Animals were maintained in individually vented cages on a 12-h light-dark cycle. Food and water were available ad libitum. The Colon-26 tumor cells were maintained in vitro with RPMI1640 medium supplemented with 10% fetal bovine serum at 37° C. in an atmosphere of 5% CO2 in air. The cells in exponential growth phase were harvested and quantitated by cell counter before tumor inoculation. […] Randomization was started when the mean tumor size reached approximately 125 mm^3. A total of 84 tumor-bearing mice were enrolled in the study and allocated into 7 treatment groups (12 mice per group). Also 12 non-tumor-bearing mice were assigned as un-treated group.
Animals were treated with either vehicle (10% DMSO/90% [20% SBE-β-CD in saline], pH 5) or vehicle containing compounds at the indicated doses by gavage (p.o.) twice daily for approximately 28-42 days (BID×28-42 p.o.), or to ethical endpoints (BWL>20%; Median Tumor Volume (MTV)>2000 mm^3; Individual TV>3000 mm^3; clinical signs of unwell). Clinical signs of unwell was characterized, but not limited to the following. Severe dehydration, hypothermia, abnormal/labored respiration, lethargy, obvious pain, diarrhea, skin lesions, neurological symptoms, impaired mobility (not able to eat or drink) due to significant ascites and enlarged abdomen, astasia, continuous prone or lateral position, signs of muscular atrophy, paralytic gait, clonic convulsions, tonic convulsions, persistent bleeding from body orifice. Dosing as well as tumor and body weight measurements were conducted in a Laminar Flow Cabinet.
Animals were checked daily for morbidity and mortality. During routine monitoring, the animals were checked for any effects of tumor growth and treatments on behavior such as mobility, food and water consumption, body weight gain/loss (body weights were measured twice per week after randomization), eye/hair matting and any other abnormalities. Mortality and observed clinical signs were recorded for individual animals in detail.
Tumor volumes were measured twice per week after randomization in two dimensions using a caliper, and the volume was expressed in mm3 using the formula: V=(L×W×W)/2, where V is tumor volume, L is tumor length (the longest tumor dimension) and W is tumor width (the longest tumor dimension perpendicular to L). Results were presented as the median tumor volume, expressed in mm^3+/−interquartile range, of each group. Tumor Growth Inhibition; TGI %=[1−(Ti/(Ci)]×100; where Ti as the median tumor volume of the treatment group on the measurement day, Ci as the median tumor volume of control group at the measurement day.
The body weights and tumor volumes were measured by using StudyDirector™ software (version 3.1.399.19).
The protocol and any amendment(s) or procedures involving the care and use of animals in this study were reviewed and approved by the Institutional Animal Care and Use Committee (IACUC) of CrownBio prior to execution. During the study, the care and use of animals were conducted in accordance with the regulations of the Association for Assessment and Accreditation of Laboratory Animal Care (AAALAC).

CYP450 1A2 = target: T2, CYP450 1A2 (Homo sapiens, UniProt P05177); experiment: CYP450 Panel; conditions: 10 μM; substrate phenacetin; in % (unit assumed)
T2 sequence (P05177 1-516): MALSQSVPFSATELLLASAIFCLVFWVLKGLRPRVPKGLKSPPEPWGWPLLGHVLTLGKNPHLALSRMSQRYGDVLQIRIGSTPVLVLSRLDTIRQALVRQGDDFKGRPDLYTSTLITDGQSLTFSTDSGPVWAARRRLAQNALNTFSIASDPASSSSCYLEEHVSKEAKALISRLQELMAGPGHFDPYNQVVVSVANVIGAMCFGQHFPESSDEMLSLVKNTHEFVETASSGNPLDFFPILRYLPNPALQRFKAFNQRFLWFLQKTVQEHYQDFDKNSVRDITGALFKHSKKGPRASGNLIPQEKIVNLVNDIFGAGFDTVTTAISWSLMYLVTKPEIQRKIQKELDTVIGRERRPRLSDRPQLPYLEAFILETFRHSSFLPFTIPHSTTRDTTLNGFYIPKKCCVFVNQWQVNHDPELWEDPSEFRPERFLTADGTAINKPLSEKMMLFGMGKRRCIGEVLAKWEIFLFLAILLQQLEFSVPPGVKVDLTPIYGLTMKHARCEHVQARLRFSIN

CYP450 2C8 = target: T3, CYP450 2C8 (Homo sapiens, UniProt P10632); experiment: CYP450 Panel; format: in vitro ADME; conditions: 10 μM; substrate amodiaquine
T3 sequence (P10632 1-490): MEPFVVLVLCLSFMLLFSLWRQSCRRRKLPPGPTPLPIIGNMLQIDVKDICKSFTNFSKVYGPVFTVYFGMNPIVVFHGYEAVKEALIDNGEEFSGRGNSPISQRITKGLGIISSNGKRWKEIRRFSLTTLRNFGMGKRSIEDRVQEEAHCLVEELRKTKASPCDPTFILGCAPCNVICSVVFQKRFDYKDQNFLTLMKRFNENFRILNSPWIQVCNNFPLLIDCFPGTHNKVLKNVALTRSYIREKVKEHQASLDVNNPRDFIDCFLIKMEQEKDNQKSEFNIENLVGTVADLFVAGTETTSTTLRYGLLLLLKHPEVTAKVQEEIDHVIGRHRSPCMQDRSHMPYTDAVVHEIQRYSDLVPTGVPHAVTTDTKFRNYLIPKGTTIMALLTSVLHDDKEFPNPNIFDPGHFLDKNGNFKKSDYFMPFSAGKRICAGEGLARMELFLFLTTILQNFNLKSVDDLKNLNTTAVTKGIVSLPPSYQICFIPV

[1] = Plasma Stability (% remaining @2 hour); format: in vitro ADME; conditions: SD Rat; 2 μM

| SMILES | CYP450 Panel 2B6 (CYP450 2B6) [%] | BWL (Day 14) (Colon-26 KRAS-G12D tumor; 150 mg/kg BID po) [%] | BWL (Day 17) (Colon-26 KRAS-G12D tumor; 150 mg/kg BID po) [%] | TGI (Day 10) (Colon-26 KRAS-G12D tumor; 150 mg/kg BID po) [%] | CYP450 Panel 1A2 (CYP450 1A2) | CYP450 Panel 2C8 (CYP450 2C8) [%] | Plasma stability, % Remaining @2 hour [1] [%] | BWL (Day 14) (Colon-26 KRAS-G12D tumor; 50 mg/kg BID po) [%] | BWL (Day 17) (Colon-26 KRAS-G12D tumor; 50 mg/kg BID po) [%] |
| --- | --- | --- | --- | --- | --- | --- | --- | --- | --- |
| CNS(=O)(=O)Nc1cccc(Cc2c(CN(C)C)c3ccc(OC(=O)N(C)C)cc3oc2=O)c1F [Compound A, 4-((dimethylamino)methyl)-3-(2-fluoro-3-((N-methylsulfamoyl)amino)benzyl)-2-oxo-2H-chromen-7-yl dimethylcarbamate] | 14.8 | 0 | 0 | 93.9 | 4.8 | 4 | 106.4 |  |  |
| Cn1cnc2c(F)c(Nc3ccc(Br)cc3Cl)c(C(=O)NOCCO)cc21 [Reference 1, Selumetinib] | 30.2 |  |  |  | 8.3 | 18.9 | 94.9 | 0 | −2 |
